The conditions of one series: 24.0 °C.
Turning to `CSSC`, the log10 OH rate constant (cm³/molecule/s) was -9.64.

Staying with this series, now noted: 25.0 °C.
Take `C1=CCCCCC1`: the log10 OH rate constant (cm³/molecule/s) was -10.1.

With `CCOCCOC(=O)C(C)C`, the log10 OH rate constant (cm³/molecule/s) was -10.9.

Compound `CCCC(=O)OC` registered a log10 OH rate constant (cm³/molecule/s) of -11.5.

Turning to `C#CCCCC`, the log10 OH rate constant (cm³/molecule/s) was -10.9.

In the case of `CCC#N`, the log10 OH rate constant (cm³/molecule/s) is -12.7.

Regarding `COP(=O)(OC)OC`, the log10 OH rate constant (cm³/molecule/s) is -11.1.

For `FC(F)F`, the log10 OH rate constant (cm³/molecule/s) was -15.5.

Compound `CC(=O)Cl` registered a log10 OH rate constant (cm³/molecule/s) of -14.

Compound `CCCCCCO` yielded a log10 OH rate constant (cm³/molecule/s) of -10.9.

Compound `O=[N+]([O-])OC1CCCCC1` showed a log10 OH rate constant (cm³/molecule/s) of -11.5.

With `CC1=CCC2CC1C2(C)C` (configuration not stated), the log10 OH rate constant (cm³/molecule/s) was -10.3.

In turn, `CCOP(=O)(OCC)OCC` came in with a log10 OH rate constant (cm³/molecule/s) of -10.3.

As to `ClCC(Cl)Cl`, the log10 OH rate constant (cm³/molecule/s) is -12.7.

Regarding `CCCCOCC`, the log10 OH rate constant (cm³/molecule/s) was -10.7.

`CCCCCOC(C)=O`: the log10 OH rate constant (cm³/molecule/s) was -11.1.

Regarding `CC(C)O`, the log10 OH rate constant (cm³/molecule/s) was -11.3.

In turn, `CCCCCO[N+](=O)[O-]` returned a log10 OH rate constant (cm³/molecule/s) of -11.5.

In the case of `C=CCCCOC(C)=O`, the log10 OH rate constant (cm³/molecule/s) is -10.4.

The compound `CCC(C)=C(C)C` showed a log10 OH rate constant (cm³/molecule/s) of -9.99.

As for `COC(C)(C)C`, the log10 OH rate constant (cm³/molecule/s) is -11.5.

`COCC(Cl)Cl`: the log10 OH rate constant (cm³/molecule/s) was -11.6.

On to `Nc1ccccc1`, for which the log10 OH rate constant (cm³/molecule/s) was -9.95.

Consider `Cl/C=C\Cl`, for which the log10 OH rate constant (cm³/molecule/s) is -11.6.

Turning to `C1=CC2CCC1CC2`, the log10 OH rate constant (cm³/molecule/s) was -10.4.

In turn, `COC(=O)C(F)(F)F` showed a log10 OH rate constant (cm³/molecule/s) of -13.3.

Take `C=C(C)[C@H]1CC=C(C)CC1`: the log10 OH rate constant (cm³/molecule/s) is -9.77.

For the compound `ClCCCl`, the log10 OH rate constant (cm³/molecule/s) is -12.6.

`CC(C)(C)CO[N+](=O)[O-]` displayed a log10 OH rate constant (cm³/molecule/s) of -12.1.

As to `CC(C)=O`, the log10 OH rate constant (cm³/molecule/s) is -12.7.

In turn, `CCCCOC=O` registered a log10 OH rate constant (cm³/molecule/s) of -11.5.

`CCOC=CC(=O)OCC` returned a log10 OH rate constant (cm³/molecule/s) of -10.5.

Regarding `COP(=O)(OC)SC`, the log10 OH rate constant (cm³/molecule/s) is -11.

For `C/C=C/C(C)C`, the log10 OH rate constant (cm³/molecule/s) is -10.2.

As to `CCCCCCC(C)=O`, the log10 OH rate constant (cm³/molecule/s) was -11.

Regarding `CCCCOC(C)=O`, the log10 OH rate constant (cm³/molecule/s) was -11.3.

Consider `FC(Cl)C(F)(F)F` (configuration not stated), for which the log10 OH rate constant (cm³/molecule/s) was -14.

The compound `COCC(F)(F)F` had a log10 OH rate constant (cm³/molecule/s) of -12.2.

The compound `CCC1CO1` (configuration not stated) showed a log10 OH rate constant (cm³/molecule/s) of -11.7.

Consider `FC1C(F)(F)OC1(F)F`, for which the log10 OH rate constant (cm³/molecule/s) was -14.6.

With `CCCOCCC`, the log10 OH rate constant (cm³/molecule/s) is -10.7.

On to `C=CCl`, for which the log10 OH rate constant (cm³/molecule/s) was -11.2.

In the case of `Fc1c(F)c(F)c(F)c(F)c1F`, the log10 OH rate constant (cm³/molecule/s) is -12.8.

With `COC(F)(F)F`, the log10 OH rate constant (cm³/molecule/s) was -13.7.

Take `O=CCl`: the log10 OH rate constant (cm³/molecule/s) was -12.5.

The compound `CCCOC=O` yielded a log10 OH rate constant (cm³/molecule/s) of -11.6.

For `COCCBr`, the log10 OH rate constant (cm³/molecule/s) was -11.2.

Compound `Cc1cccc(C)c1O` returned a log10 OH rate constant (cm³/molecule/s) of -10.2.

As for `FC(F)(F)C(Cl)Cl`, the log10 OH rate constant (cm³/molecule/s) was -13.4.

`C1CC[C@H]2CCC[C@@H]2C1` (racemic) yielded a log10 OH rate constant (cm³/molecule/s) of -10.8.

With `CC(C)CCO[N+](=O)[O-]`, the log10 OH rate constant (cm³/molecule/s) was -11.7.

Consider `CC1=CCC2C(C1)C2(C)C` (configuration not stated), for which the log10 OH rate constant (cm³/molecule/s) is -10.1.

The compound `C=CCCC(=C)C` gave a log10 OH rate constant (cm³/molecule/s) of -10.

For the compound `CC(=O)OC(C)(C)C`, the log10 OH rate constant (cm³/molecule/s) was -12.3.

On to `CCCC[N+](=O)[O-]`, for which the log10 OH rate constant (cm³/molecule/s) was -11.8.

As for `COC=O`, the log10 OH rate constant (cm³/molecule/s) was -12.6.

As to `CCOCCO`, the log10 OH rate constant (cm³/molecule/s) was -10.8.

For the compound `CCCCCOCCCCC`, the log10 OH rate constant (cm³/molecule/s) was -10.5.

For the compound `C1CC1`, the log10 OH rate constant (cm³/molecule/s) was -13.1.

With `C=C(C)CCC`, the log10 OH rate constant (cm³/molecule/s) is -10.2.

Compound `CCCCCCCCCCCCCCC` displayed a log10 OH rate constant (cm³/molecule/s) of -10.7.

With `Cl/C=C\CCl`, the log10 OH rate constant (cm³/molecule/s) is -11.

Regarding `Clc1ccc(Cl)c(Cl)c1`, the log10 OH rate constant (cm³/molecule/s) was -12.3.

The compound `Clc1cccc(-c2ccccc2)c1` returned a log10 OH rate constant (cm³/molecule/s) of -11.3.

With `CC(C)C(C)C(C)C`, the log10 OH rate constant (cm³/molecule/s) was -11.2.

In the case of `Cc1ccc(O)cc1C`, the log10 OH rate constant (cm³/molecule/s) is -10.1.

In the case of `CCCCOCCCC`, the log10 OH rate constant (cm³/molecule/s) was -10.5.

Compound `CCCCO` returned a log10 OH rate constant (cm³/molecule/s) of -11.1.

In turn, `C=O` returned a log10 OH rate constant (cm³/molecule/s) of -11.

Take `Cc1cc(C)cc(O)c1`: the log10 OH rate constant (cm³/molecule/s) is -9.95.

For the compound `ClCC(Br)CBr` (configuration not stated), the log10 OH rate constant (cm³/molecule/s) was -12.4.

Compound `CCCCCO` came in with a log10 OH rate constant (cm³/molecule/s) of -11.

The compound `C=C(Cl)Cl` came in with a log10 OH rate constant (cm³/molecule/s) of -11.

`CCCCCCCCCCC` came in with a log10 OH rate constant (cm³/molecule/s) of -10.9.

For `CC(C)(C)OC=O`, the log10 OH rate constant (cm³/molecule/s) was -12.1.

Compound `CC(C)OC(C)C` gave a log10 OH rate constant (cm³/molecule/s) of -11.

Compound `COC` returned a log10 OH rate constant (cm³/molecule/s) of -11.5.

Compound `CCCCOC` showed a log10 OH rate constant (cm³/molecule/s) of -10.8.

On to `FC(F)OCC(F)(F)F`, for which the log10 OH rate constant (cm³/molecule/s) was -13.9.

`CC(Cl)(Cl)Cl` came in with a log10 OH rate constant (cm³/molecule/s) of -14.

As to `CCOC(=O)CC`, the log10 OH rate constant (cm³/molecule/s) was -11.7.

`CC(C)(C)CO` returned a log10 OH rate constant (cm³/molecule/s) of -11.3.

In the case of `CCCOC(=O)CCC`, the log10 OH rate constant (cm³/molecule/s) was -11.1.

With `FC(F)(Cl)CCl`, the log10 OH rate constant (cm³/molecule/s) is -13.8.

As to `C=CCC`, the log10 OH rate constant (cm³/molecule/s) was -10.5.

For `C/C=C\C`, the log10 OH rate constant (cm³/molecule/s) is -10.2.

As to `CC(Cl)Cl`, the log10 OH rate constant (cm³/molecule/s) was -12.6.

As for `C[N+](=O)[O-]`, the log10 OH rate constant (cm³/molecule/s) is -12.9.

In turn, `C=CC` yielded a log10 OH rate constant (cm³/molecule/s) of -10.6.

For `CCC=C(C)C`, the log10 OH rate constant (cm³/molecule/s) was -10.1.

In the case of `FCC(F)F`, the log10 OH rate constant (cm³/molecule/s) is -13.7.

Compound `Cc1cccc(O)c1C` had a log10 OH rate constant (cm³/molecule/s) of -10.1.

In the case of `C=CCCC`, the log10 OH rate constant (cm³/molecule/s) was -10.5.

In the case of `CC(F)(F)C(F)(Cl)Cl`, the log10 OH rate constant (cm³/molecule/s) was -14.6.

As to `CCCCCCCO`, the log10 OH rate constant (cm³/molecule/s) was -10.9.

`CO` yielded a log10 OH rate constant (cm³/molecule/s) of -12.

As for `ClCC(Cl)(Cl)Cl`, the log10 OH rate constant (cm³/molecule/s) is -13.7.

The compound `C=CC#N` had a log10 OH rate constant (cm³/molecule/s) of -11.4.

`C=CC(=O)OCC` showed a log10 OH rate constant (cm³/molecule/s) of -10.8.

Consider `CCCOC(=O)CC`, for which the log10 OH rate constant (cm³/molecule/s) was -11.4.

For the compound `CCCO`, the log10 OH rate constant (cm³/molecule/s) was -11.3.

`CCCC(C)C` yielded a log10 OH rate constant (cm³/molecule/s) of -11.3.

The compound `CCC[N+](=O)[O-]` had a log10 OH rate constant (cm³/molecule/s) of -12.4.

`COCCCl` displayed a log10 OH rate constant (cm³/molecule/s) of -11.3.

As for `CCOC(C)(C)C`, the log10 OH rate constant (cm³/molecule/s) is -11.1.

`Clc1ccccc1-c1ccccc1` registered a log10 OH rate constant (cm³/molecule/s) of -11.5.

As for `FC(C(F)C(F)(F)C(F)(F)F)C(F)(F)F` (configuration not stated), the log10 OH rate constant (cm³/molecule/s) is -14.5.

In turn, `C=C(C)C(=O)OCCOCC` showed a log10 OH rate constant (cm³/molecule/s) of -10.6.

As to `COP(=O)(SC)SC`, the log10 OH rate constant (cm³/molecule/s) is -11.

For `CCc1ccccc1`, the log10 OH rate constant (cm³/molecule/s) is -11.1.

Compound `CC(F)(F)Cl` yielded a log10 OH rate constant (cm³/molecule/s) of -14.5.

As to `CCCOCCO`, the log10 OH rate constant (cm³/molecule/s) is -10.7.

The compound `CCCC(=O)OCC` returned a log10 OH rate constant (cm³/molecule/s) of -11.3.

On to `Cc1ccc(O)c(C)c1`, for which the log10 OH rate constant (cm³/molecule/s) was -10.1.

Compound `O=C1CCCC1` yielded a log10 OH rate constant (cm³/molecule/s) of -11.5.

The compound `FC(F)OC(F)(F)F` displayed a log10 OH rate constant (cm³/molecule/s) of -14.5.

The compound `CC=CCC` returned a log10 OH rate constant (cm³/molecule/s) of -10.2.

Regarding `C=CC/C=C/C`, the log10 OH rate constant (cm³/molecule/s) was -10.

As for `FCC(F)(F)F`, the log10 OH rate constant (cm³/molecule/s) was -14.3.

Regarding `Cc1ccc(C)c(O)c1`, the log10 OH rate constant (cm³/molecule/s) is -10.1.

In the case of `C=CCC(=C)C`, the log10 OH rate constant (cm³/molecule/s) is -10.1.

The compound `C1=CCCC1` had a log10 OH rate constant (cm³/molecule/s) of -10.2.

The record behind these values is the OPERA property sets (Mansouri et al. 2018).
